Measured values: patent US20040092584A1, “Substance or composition for the treatment of cancer” (priority 2000, published 2004)

How the values were obtained:
HeLa = experiment: Growth of cancer cell lines, MTT reactivity (HeLa); type: cell-based, human; settings: mean drug concentration causing 50% cell killing, 3-4 experiments, 72 to 96 h, read-out: IC 50 (μM) HeLa
Method: (§1) The sensitivities of the two cancer cell lines HeLa, which is a sensitive human cervix epitheloid carcinoma cell line, and CoLo 320DM, which is an intrinsically multidrug resistant human colon adeno-carcinoma cell line, to 13 of the complexes of the invention was tested.

CoLo 320DM = experiment: Growth of cancer cell lines, MTT reactivity (CoLo 320DM); type: cell-based, human; settings: mean drug concentration causing 50% cell killing, 3-4 experiments, 72 to 96 h, multidrug resistant line, read-out: IC 50 (μM) CoLo 320DM
Method: as §1

COR L23 = experiment: Growth of cancer cell lines, MTT reactivity (COR L23); type: cell-based, human; settings: mean drug concentration causing 50% cell killing, 3-4 experiments, 72 to 96 h, read-out: IC 50 (μM) COR L23
Method: (§2) In these experiments cancer cell lines were cultured in standard tissue culture medium supplemented with 10% fetal calf serum (FCS) at 37° C. In an atmosphere of 5% CO2 in 96 well round bottom microtitre plates. The cultures were treated with either ferrocene-containing β-diketones or their rhodium complexes at varying concentrations for 72 to 96 h, and the extent of cell growth was assayed by MTT [3-(4,5-dimethylthiazol-2yl)-2,5-diphenyl tetrazolium bromide] reactivity, which detects only viable cells.

COR L23/CPR = experiment: Growth of cancer cell lines, MTT reactivity (COR L23/CPR); type: cell-based, human; settings: mean drug concentration causing 50% cell killing, 3-4 experiments, 72 to 96 h, platinum resistant variant, read-out: IC 50 (μM) COR L23/CPR
Method: as §2

[1] = test system: PHA-stimulated human lymphocytes; experiment: Proliferation of PHA-stimulated human lymphocytes, MTT reactivity; settings: for IC50: read-out: IC 50 (μM) PHA-stimulated lymphocytes, mean drug concentration causing 50% cell killing, PHA 2.5 μg/ml, 72 h, MTT; for Tumor specificity: activity against tumor cells versus stimulated normal human lymphocytes: tumor cells versus PHA-stimulated lymphocytes (Table 1)
Method: In these experiments suspensions of purified human mononuclear leukocytes were cultured in RPMI medium supplemented with 10% fetal calf serum (FCS) at 37° C. in an atmosphere of 5% CO2 in 96 well round bottom microtitre plates. To some of the wells a mitogen (phytohaemagglutinin, PHA) was added at a concentration of 2.5 μg/ml. The cultures were treated with either ferrocene-containing β-diketones or their rhodium complexes at varying concentrations for 72 h, and the extent of cell growth was assayed by MTT reactivity.

[2] = Anticancer activity of synthesis intermediates; settings: intermediates of the published synthesis route
[3] = test system: Chinese hamster ovary (CHO) cells; experiment: Survival of CHO cells after irradiation under hypoxic conditions; type: cell-based; settings: for Mean Inactivation Dose (Gy) / Dose Modifying Factor (DMF): hypoxic conditions; for Mean Inactivation Dose (Gy): 8 MV photon beam; for Dose Modifying Factor (DMF): ratio of mean inactivation doses; for Sensitivity of CHO cells to irradiation under hypoxic conditions (in words): submicromolar concentrations
Method: CHO cells were treated in glass test tubes with non-toxic concentrations (0.39 μM and 0.78 μM) of the two rhodium-ferrocene complexes [Rh(fctca)(cod)] and [Rh(fctfa)(cod)] and irradiated with an 8 MV photon beam in a modular incubator chamber with a 2 cm tissue equivalent wax buildup (8MVmax) under aerobic and hypoxic conditions.
Neither of the two rhodium complexes tested increased the sensitivity of CHO cells to irradiation in an aerobic environment (results not shown). However, both complexes increased the sensitivity of CHO cells under hypoxic conditions (FIGS. 4 and 5). A dose-modifying factor of 2.9 was obtained under hypoxic conditions for 0.78 μM [Rh(fctfa)(cod)] (Table 2) and 1.9 for 0.39 μM [Rh(fctca)(cod)] (Table 3). The dose-modifying factors were calculated as the ratio of mean inactivation doses [calculated from the respective inactivation parameters obtained from the linear quadratic fit of the cell growth fraction (S)]. Published dose modifying factors (DMFs) measured for cisplatin range from 1.2-2 (Chibber R, Stratford I J, O'Neill P, Sheldon P W, Ahmed I, Lee B. 1985. The interaction between radiation and complexes of cis-Pt (II) and Rh (II): Studied at the molecular level. Int J Radiat Biol 48:513-524; Van De Vaart,. P J M, Klaren, H M, Holland I, Begg A C. 1997. Oral platinum analogue JM216, a radiosensitizer in oxic murine cells. Int J Radiat Biol 72(6):675-683).

[4] = published values; cited from earlier work

Compound | IC50 (HeLa) [µM] | IC50 (CoLo 320DM) [µM] | IC50 (COR L23) [µM] | IC50 (COR L23/CPR) [µM] | IC50 [1] [µM] | further results
C1=CCCC=CCC1.O=C(C=C[O-])[c-]1cccc1.[Rh+].[Ru+2].c1cc[cH-]c1 [[Rh(RcH)(cod)], (η^4-1,5-cyclooctadiene)(1-ruthenocenyl-1,3-propanedionato-κ^2O,O′)rhodium(1)] | 52 | 68.8 | 34 | 39.6 |  | 
diferrocenoylmethane [Hdfcm] | 54.4 | 64.3 | 75.4 | 74.4 | > 100 | 
(η^4-1,5-cyclooctadiene)(1,3-diferrocenyl-1,3-propanedionato-κ^2O,O′)rhodium(1) [Rh(dfcm)(cod)] | 18.4 | 70.8 | 19.9 | 30.8 | 42.2 | 
C1=CCCC=CCC1.O=C(C=C([O-])[c-]1cccc1)c1ccccc1.[Rh+].[Ru+2].c1cc[cH-]c1 [[Rh(brcm)(cod)], (η^4-1,5-cyclooctadiene)(1-ruthenocenyl-3-phenyl-1,3-propanedionato-κ^2O,O′)rhodium(1)] | 16.2 | 20.4 | 15.8 | 14.1 |  | 
C1=C\CC/C=C\CC/1.C1=C\CC/C=C\CC/1.[Cl-].[Cl-].[Rh].[Rh] [[RhCl(cod)]2] |  |  |  |  |  | Significant anticancer activity [2]: none
C1=CCCC=CCC1.CC(=O)C=C([O-])[c-]1cccc1.[Rh+].[Ru+2].c1cc[cH-]c1 [[Rh(rca)(cod)], (η^4-1,5-cyclooctadiene)(1-ruthenocenyl-1,3-butanedionato-κ^2O,O′)rhodium(1)] | 4.86 | 3 | 0.18 | 2.74 |  | 
C1=CCCC=CCC1.O=C(C=C([O-])C(F)(F)F)[c-]1cccc1.[Fe+2].[Rh+].c1cc[cH-]c1 [Rh(fctfa)(cod), (η^4-1,5-cyclooctadiene)(1-ferrocenyl-4,4,4-trifluooro-1,3-butanedionato-κ^2O,O′)rhodium(1)] | 12.5 | 13.4 | 8.5 | 5.8 | 41.6 | Mean Inactivation Dose (Gy) ([3]; 0.39 μM complex): 2.41 Gy; Dose Modifying Factor (DMF) ([3]; 0.39 μM complex): 2.6; Mean Inactivation Dose (Gy) ([3]; 0.78 μM complex): 2.19 Gy; Dose Modifying Factor (DMF) ([3]; 0.78 μM complex): 2.9; Sensitivity of CHO cells to irradiation under hypoxic conditions (in words) [3]: compare favorably with cisplatin; Tumor specificity: activity against tumor cells versus stimulated normal human lymphocytes [1]: 4-5 times
(η^4-1,5-cyclooctadiene)(1-ferrocenyl-1,3-propanedionato-κ^2O,O′)rhodium(1) [Rh(FcH)(cod)] | 62.4 | 35.4 |  |  |  | 
ferrocenoyltrifluoroacetone [Hfctfa] | 6.8 | 7.3 | 4.5 | 6.3 | 83.1 | Radiosensitisation, initial tests (in words) [3]: promising; Tumor specificity: activity against tumor cells versus stimulated normal human lymphocytes [1]: eight
acetyl ferrocene |  |  |  |  |  | Significant anticancer activity [2]: none
O=CCC(=O)[c-]1cccc1.[Fe+2].c1cc[cH-]c1 [Hfch, ferrocenoylacetaldehyde] | 73.4 | 80.8 |  |  |  | 
C1=C\CC/C=C\CC/1.CC(=O)/C=C(/C)O.[Rh] [Rh(acac)(cod)] | 97.3 | > 100 |  |  |  | 
C1=CCCC=CCC1.CC([O-])=CC(=O)[c-]1cccc1.[Fe+2].[Rh+].c1cc[cH-]c1 [Rh(fca)(cod), (η^4-1,5-cyclooctadiene)(1-ferrocenyl-1,3-butanedionato-κ^2O,O′)rhodium(1)] | 64.4 | 56.6 |  |  |  | 
C1=CCCC=CCC1.O=C(C=C([O-])C(Cl)(Cl)Cl)[c-]1cccc1.[Fe+2].[Rh+].c1cc[cH-]c1 [Rh(fctca)(cod), (η^4-1,5-cyclooctadiene)(1-ferrocenyl-4,4,4-trichloro-1,3-butanedionato-κ^2O,O′)rhodium(1)] | 7.9 | 3 | 1.3 | 2 | 4.7 | Mean Inactivation Dose (Gy) ([3]; 0.39 μM complex): 3.73 Gy; Dose Modifying Factor (DMF) ([3]; 0.39 μM complex): 1.9; Mean Inactivation Dose (Gy) ([3]; 0.78 μM complex): 4.46 Gy; Dose Modifying Factor (DMF) ([3]; 0.78 μM complex): 1.6; Sensitivity of CHO cells to irradiation under hypoxic conditions (in words) [3]: compare favorably with cisplatin
[Cl][Rh]([Cl])[Cl] [RhCl3] |  |  |  |  |  | Significant anticancer activity [2]: none
C1=CCCC=CCC1.O=C(C=C([O-])C(F)(F)F)[c-]1cccc1.[Rh+].[Ru+2].c1cc[cH-]c1 [[Rh(rctfa)(cod)], (η^4-1,5-cyclooctadiene)(1-ruthenocenyl-4,4,4-trifluooro-1,3-butanedionato-κ^2O,O′)rhodium(1)] | 54.7 | 67.4 | 49.2 | 48 |  | 
C1=CCCC=CCC1.O=C(C=C([O-])c1ccccc1)[c-]1cccc1.[Fe+2].[Rh+].c1cc[cH-]c1 [Rh(bfcm)(cod), (η^4-1,5-cyclooctadiene)(1-ferrocenyl-3-phenyl-1,3-propanedionato-κ^2O,O′)rhodium(1)] | 28.3 | 87.1 | 22.5 | 22 | 97.2 | 
benzoylferrocenoylmethane [Hbfcm] | 54.2 | 85.1 | 66.8 | 80.4 | > 100 | 
N.N.[Cl][Pt][Cl] [cisplatin] |  |  |  |  |  | Published dose modifying factors (DMFs) [4]: 1.2-2
O=C(CC(=O)C(Cl)(Cl)Cl)[c-]1cccc1.[Fe+2].c1cc[cH-]c1 [Hfctca, ferrocenoyltrichloroacetone] | 37.7 | 28.4 | 12.5 | 20.1 | 67.5 | Radiosensitisation, initial tests (in words) [3]: promising
ferrocenoylacetone [Hfca] | 66.6 | 57.1 |  |  |  | 
C1=CCCC=CCC1.O=C(C=C([O-])[c-]1cccc1)[c-]1cccc1.[Fe+2].[Rh+].[Ru+2].c1cc[cH-]c1.c1cc[cH-]c1 [[Rh(fcrcm)(cod)], (η^4-1,5-cyclooctadiene)(1-ferrocenyl-3-ruthenocenyl-1,3-propanedionato-κ^2O,O′)rhodium(1)] | 17.1 | 29.2 | 10.1 | 20.1 |  | 
